Structures are written as SMILES.

Test [1] has as its target Cyclin-dependent kinase 3 (Homo sapiens) (UniProt Q00526). As to the kind of experiment: Inhibition of CDK3 (unknown origin) assessed as remaining activity at 1 uM by Kinome scan method relative to control.
For test [2], the target named is Serine/threonine-protein kinase MRCK gamma (Homo sapiens) (UniProt Q6DT37). As to the kind of experiment: Inhibition of DMPK2 (unknown origin) assessed as remaining activity at 1 uM by Kinome scan method relative to control.
Serine/threonine-protein kinase MRCK gamma (Homo sapiens), sequence (Q6DT37 whole entry): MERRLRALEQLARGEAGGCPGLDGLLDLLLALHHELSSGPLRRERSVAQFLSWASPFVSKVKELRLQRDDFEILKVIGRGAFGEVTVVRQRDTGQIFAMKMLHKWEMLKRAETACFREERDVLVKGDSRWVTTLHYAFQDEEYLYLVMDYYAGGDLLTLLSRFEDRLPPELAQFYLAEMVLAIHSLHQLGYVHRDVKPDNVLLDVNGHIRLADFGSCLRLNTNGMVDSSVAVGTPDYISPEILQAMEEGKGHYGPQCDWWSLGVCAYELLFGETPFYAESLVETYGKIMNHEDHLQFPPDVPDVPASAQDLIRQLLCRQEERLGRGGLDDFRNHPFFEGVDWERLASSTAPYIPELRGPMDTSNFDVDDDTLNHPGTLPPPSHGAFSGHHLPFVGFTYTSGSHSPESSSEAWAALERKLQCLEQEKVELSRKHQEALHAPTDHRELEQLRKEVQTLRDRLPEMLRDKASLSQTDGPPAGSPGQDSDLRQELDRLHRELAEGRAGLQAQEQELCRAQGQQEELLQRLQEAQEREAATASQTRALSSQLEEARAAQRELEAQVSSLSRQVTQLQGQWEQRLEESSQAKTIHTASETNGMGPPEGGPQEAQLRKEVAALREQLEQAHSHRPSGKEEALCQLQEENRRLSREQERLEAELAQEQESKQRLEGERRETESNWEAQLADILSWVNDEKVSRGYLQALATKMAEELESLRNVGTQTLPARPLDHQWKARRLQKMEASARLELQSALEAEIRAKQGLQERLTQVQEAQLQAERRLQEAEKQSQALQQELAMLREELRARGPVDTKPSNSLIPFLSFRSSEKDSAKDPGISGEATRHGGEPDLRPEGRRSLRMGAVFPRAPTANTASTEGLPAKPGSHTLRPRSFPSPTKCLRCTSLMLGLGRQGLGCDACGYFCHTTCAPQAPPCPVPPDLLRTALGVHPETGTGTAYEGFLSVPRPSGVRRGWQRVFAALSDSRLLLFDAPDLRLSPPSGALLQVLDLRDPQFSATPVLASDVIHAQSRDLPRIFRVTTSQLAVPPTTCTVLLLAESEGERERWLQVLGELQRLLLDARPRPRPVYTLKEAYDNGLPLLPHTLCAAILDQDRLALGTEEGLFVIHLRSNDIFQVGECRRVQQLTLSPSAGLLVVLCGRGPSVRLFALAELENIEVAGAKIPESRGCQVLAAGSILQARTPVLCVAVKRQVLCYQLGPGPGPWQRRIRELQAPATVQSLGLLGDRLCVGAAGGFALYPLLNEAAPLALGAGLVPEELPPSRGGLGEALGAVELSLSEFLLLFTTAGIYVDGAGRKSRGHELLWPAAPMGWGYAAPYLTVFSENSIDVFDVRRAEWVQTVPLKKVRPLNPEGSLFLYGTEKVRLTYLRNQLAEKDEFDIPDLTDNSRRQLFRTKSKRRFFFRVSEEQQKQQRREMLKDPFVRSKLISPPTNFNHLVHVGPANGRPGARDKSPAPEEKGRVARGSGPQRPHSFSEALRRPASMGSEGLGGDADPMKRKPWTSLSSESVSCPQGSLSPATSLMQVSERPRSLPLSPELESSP
Test [3] addresses Mitogen-activated protein kinase 4 (Homo sapiens) (UniProt P31152). The test can be described thus: Inhibition of ERK4 (unknown origin) assessed as remaining activity at 1 uM by Kinome scan method relative to control.
For test [4], the target named is Interleukin-1 receptor-associated kinase 3 (Homo sapiens) (UniProt Q9Y616). As to the kind of experiment: Inhibition of IRAK3 (unknown origin) assessed as remaining activity at 1 uM by Kinome scan method relative to control.
Test [5] addresses T1, Mitogen-activated protein kinase kinase kinase kinase 2 (Homo sapiens) (UniProt Q12851).
T1 sequence (whole entry): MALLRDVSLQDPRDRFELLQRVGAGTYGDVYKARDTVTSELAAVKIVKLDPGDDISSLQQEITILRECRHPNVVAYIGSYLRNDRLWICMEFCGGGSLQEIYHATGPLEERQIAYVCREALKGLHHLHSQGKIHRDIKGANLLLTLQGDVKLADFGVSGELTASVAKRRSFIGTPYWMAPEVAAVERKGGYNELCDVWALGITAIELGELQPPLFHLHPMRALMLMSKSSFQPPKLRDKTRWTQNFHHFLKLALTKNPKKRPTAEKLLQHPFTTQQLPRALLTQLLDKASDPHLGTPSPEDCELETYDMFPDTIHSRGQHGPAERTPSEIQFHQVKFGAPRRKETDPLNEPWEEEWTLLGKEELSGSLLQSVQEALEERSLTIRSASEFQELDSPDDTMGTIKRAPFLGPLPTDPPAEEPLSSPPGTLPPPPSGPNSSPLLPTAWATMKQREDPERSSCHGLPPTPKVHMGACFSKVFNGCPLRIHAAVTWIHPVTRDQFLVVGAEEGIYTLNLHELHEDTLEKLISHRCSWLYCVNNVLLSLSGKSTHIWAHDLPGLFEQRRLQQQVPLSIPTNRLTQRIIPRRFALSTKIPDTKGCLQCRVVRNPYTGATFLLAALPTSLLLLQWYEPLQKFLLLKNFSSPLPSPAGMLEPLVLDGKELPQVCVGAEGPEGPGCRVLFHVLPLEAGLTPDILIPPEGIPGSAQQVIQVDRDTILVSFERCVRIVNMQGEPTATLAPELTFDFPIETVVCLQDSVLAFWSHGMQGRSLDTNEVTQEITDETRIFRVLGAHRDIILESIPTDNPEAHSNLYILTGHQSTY
As to the kind of experiment: Inhibition of MAP4K2 (unknown origin) assessed as remaining activity at 1 uM by Kinome scan method relative to control.

Test [6] concerns the target Mitogen-activated protein kinase 14 (Homo sapiens) (UniProt Q16539). The test can be described thus: Inhibition of non-phosphorylated human N-terminal His-P38alpha overexpressed in Escherichia coli BL21 (DE3) assessed as remaining activity at 1 uM by Kinome scan method relative to control.
Test [7] concerns Phosphatidylinositol 4,5-bisphosphate 3-kinase catalytic subunit alpha isoform (Homo sapiens), P42336 [M1043I]. As to the kind of experiment: Inhibition of PIK3CA M1043I mutant (unknown origin) assessed as remaining activity at 1 uM by Kinome scan method relative to control.
Phosphatidylinositol 4,5-bisphosphate 3-kinase catalytic subunit alpha isoform (Homo sapiens), P42336 [M1043I], sequence (P42336 whole entry M1043I, canonical isoform): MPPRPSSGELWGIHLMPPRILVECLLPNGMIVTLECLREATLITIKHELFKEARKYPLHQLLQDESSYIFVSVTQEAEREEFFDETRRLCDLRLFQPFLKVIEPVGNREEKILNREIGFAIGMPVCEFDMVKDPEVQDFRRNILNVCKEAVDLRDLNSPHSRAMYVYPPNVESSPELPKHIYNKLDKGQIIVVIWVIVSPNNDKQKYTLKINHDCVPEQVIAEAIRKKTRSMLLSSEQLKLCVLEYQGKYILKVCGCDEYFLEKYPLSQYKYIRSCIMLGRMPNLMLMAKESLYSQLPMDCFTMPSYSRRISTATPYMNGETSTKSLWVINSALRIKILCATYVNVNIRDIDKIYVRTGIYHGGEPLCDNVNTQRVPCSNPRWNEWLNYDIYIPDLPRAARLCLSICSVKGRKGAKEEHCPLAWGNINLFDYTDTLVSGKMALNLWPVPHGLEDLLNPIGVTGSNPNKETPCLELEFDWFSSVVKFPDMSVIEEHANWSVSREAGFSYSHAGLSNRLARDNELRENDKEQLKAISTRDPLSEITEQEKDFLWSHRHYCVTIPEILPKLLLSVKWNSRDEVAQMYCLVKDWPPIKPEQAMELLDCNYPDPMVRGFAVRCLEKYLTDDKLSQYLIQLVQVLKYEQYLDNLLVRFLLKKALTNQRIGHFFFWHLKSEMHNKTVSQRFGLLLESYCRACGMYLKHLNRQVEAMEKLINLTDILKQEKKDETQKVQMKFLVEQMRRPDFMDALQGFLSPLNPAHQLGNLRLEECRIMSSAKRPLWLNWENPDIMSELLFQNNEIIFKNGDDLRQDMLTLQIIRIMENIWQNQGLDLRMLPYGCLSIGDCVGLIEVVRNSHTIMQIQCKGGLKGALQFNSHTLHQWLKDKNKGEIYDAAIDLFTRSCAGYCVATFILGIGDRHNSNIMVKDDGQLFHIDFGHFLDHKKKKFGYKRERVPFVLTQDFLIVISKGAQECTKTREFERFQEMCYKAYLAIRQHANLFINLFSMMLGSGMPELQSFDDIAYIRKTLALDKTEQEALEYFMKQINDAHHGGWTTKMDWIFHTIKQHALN
Test [8] addresses Phosphatidylinositol 4,5-bisphosphate 3-kinase catalytic subunit beta isoform (Homo sapiens) (UniProt P42338). The test can be described thus: Inhibition of PIK3CB (unknown origin) assessed as remaining activity at 1 uM by Kinome scan method relative to control.
Test [9] concerns the target Ribosomal protein S6 kinase alpha-3 (Homo sapiens) (UniProt P51812). The test can be described thus: Inhibition of N-terminal kinase domain RPS6KA3 (unknown origin) assessed as remaining activity at 1 uM by Kinome scan method relative to control.
The target in test [10] is Serine/threonine-protein kinase 35 (Homo sapiens) (UniProt Q8TDR2). The test can be described thus: Inhibition of STK35 (unknown origin) assessed as remaining activity at 1 uM by Kinome scan method relative to control.
Serine/threonine-protein kinase 35 (Homo sapiens), sequence (Q8TDR2 whole entry): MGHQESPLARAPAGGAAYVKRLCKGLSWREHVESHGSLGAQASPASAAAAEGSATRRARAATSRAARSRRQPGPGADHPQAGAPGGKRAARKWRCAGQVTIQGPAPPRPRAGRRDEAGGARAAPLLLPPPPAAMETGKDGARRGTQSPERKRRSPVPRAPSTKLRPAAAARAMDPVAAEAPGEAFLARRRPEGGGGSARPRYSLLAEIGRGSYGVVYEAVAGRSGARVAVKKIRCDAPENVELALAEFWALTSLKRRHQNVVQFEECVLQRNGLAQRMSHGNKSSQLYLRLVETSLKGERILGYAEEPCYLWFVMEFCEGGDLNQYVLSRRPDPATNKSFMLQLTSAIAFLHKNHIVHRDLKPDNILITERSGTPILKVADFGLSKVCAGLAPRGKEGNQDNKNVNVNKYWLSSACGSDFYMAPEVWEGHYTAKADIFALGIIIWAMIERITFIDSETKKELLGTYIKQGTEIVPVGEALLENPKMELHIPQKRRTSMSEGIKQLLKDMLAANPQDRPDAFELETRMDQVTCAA
Test [11] has as its target T2, Testis-specific serine/threonine-protein kinase 1 (Homo sapiens) (UniProt Q9BXA7).
T2 sequence (whole entry): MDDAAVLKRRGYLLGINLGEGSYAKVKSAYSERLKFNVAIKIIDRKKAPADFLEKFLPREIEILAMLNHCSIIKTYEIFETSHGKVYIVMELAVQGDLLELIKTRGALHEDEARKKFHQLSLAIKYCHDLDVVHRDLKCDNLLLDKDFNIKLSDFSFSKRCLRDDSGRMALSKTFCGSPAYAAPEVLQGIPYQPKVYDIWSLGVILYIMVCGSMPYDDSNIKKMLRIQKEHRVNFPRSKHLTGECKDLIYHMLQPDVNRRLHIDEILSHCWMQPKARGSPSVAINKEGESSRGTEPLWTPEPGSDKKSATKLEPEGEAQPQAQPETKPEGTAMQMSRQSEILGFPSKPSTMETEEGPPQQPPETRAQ
As to the kind of experiment: Inhibition of TSSK1B (unknown origin) assessed as remaining activity at 1 uM by Kinome scan method relative to control.

Ribosomal protein S6 kinase alpha-3 (Homo sapiens), sequence (P51812 whole entry, the tested form may be a part): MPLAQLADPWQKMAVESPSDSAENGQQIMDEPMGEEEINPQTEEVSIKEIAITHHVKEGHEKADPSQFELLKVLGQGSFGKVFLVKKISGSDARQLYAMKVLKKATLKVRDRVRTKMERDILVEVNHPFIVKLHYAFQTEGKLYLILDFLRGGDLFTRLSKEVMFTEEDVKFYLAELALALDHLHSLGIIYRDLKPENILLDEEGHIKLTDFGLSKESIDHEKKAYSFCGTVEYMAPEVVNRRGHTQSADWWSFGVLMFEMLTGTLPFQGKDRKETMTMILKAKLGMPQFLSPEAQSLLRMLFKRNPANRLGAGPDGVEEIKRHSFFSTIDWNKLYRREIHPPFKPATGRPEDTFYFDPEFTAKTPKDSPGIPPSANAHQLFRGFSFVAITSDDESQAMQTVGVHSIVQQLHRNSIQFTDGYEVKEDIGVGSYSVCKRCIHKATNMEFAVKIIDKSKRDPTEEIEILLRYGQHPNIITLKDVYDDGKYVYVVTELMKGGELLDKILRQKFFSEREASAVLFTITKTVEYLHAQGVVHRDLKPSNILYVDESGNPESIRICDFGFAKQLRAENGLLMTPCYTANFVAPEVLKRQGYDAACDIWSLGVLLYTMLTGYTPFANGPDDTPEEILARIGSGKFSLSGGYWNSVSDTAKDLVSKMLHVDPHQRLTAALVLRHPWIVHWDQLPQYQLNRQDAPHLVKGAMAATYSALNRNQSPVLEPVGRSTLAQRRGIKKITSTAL
Cyclin-dependent kinase 3 (Homo sapiens), sequence (Q00526 whole entry, looked up): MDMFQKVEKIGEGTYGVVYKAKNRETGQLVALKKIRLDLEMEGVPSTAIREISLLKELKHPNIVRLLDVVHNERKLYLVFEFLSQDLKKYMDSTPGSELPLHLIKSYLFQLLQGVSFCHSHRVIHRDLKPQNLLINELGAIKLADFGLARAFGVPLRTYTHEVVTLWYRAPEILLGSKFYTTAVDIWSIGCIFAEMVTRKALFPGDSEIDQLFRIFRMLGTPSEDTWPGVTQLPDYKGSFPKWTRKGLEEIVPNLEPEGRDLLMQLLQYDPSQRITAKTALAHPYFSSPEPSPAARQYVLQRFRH
Mitogen-activated protein kinase 4 (Homo sapiens), sequence (P31152 whole entry): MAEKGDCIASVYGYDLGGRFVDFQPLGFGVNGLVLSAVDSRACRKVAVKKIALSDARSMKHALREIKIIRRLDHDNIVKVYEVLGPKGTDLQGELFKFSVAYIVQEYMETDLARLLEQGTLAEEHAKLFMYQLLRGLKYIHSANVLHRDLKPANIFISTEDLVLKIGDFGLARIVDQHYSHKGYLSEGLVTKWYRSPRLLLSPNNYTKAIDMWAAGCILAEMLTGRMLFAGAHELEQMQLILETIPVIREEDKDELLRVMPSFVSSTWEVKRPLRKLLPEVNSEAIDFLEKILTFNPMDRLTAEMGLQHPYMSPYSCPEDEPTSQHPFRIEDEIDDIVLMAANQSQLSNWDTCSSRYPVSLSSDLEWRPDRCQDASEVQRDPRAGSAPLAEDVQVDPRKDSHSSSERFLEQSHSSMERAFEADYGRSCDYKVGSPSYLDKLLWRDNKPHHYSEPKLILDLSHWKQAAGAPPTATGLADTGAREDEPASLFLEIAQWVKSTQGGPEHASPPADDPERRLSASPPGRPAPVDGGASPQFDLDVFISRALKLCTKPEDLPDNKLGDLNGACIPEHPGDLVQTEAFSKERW

In the case of `Nc1ccccc1Nc1ccc2c(c1)CCc1ccccc1C2=O`, the Activity was 85% in [1]; 92% in test [2]; 97% in [3]; 90% in [4]; 99% in test [5]; 0.2% in [6]. For the same compound, the Activity was found to be 84% in test [7]; 88% in test [8]; 97% in test [9]; 80% in [10]; 95% in test [11].
As to `O=C1c2ccc(Nc3ccc(F)cc3F)cc2CCc2ccc(OC[C@H](O)CO)cc21` [Skepinone-L], the Activity in [1] was found to be 96%; in [2] it was 100%; in [3] it was 100%; in [4] it was 97%; in test [5], 94%; in [6], 0.2%. Further, the Activity in test [7] was 90%; in [8], 96%; in test [9], 93%; in test [10], 95%; in [11], 84%.

These data come from ChEMBL document CHEMBL5696441 (Nat Chem Biol, 2011).
